Measurements published in patent publication US20240197729A1, “ALK-5 Inhibitors and Uses Thereof” (Sumitomo Pharma Oncology, Inc., priority 2021, published 2024).
Entries after “also recorded” stand apart in the source; their conditions may differ.

What was measured:
p-SMAD2 (Ser465/Ser467) = assay: Longitudinal PK/PD analysis of p-SMAD2 in A549 xenograft mouse model; format: in vivo, mice; settings: for percent p-SMAD2 levels compared to vehicle group: 50 mg/kg per oral gavage, normalized to GAPDH; for time of peak p-SMAD2 suppression post dosing / drug tumor and plasma exposure in vivo: single dose 50 mg/kg per oral gavage; for drug tumor and plasma exposure in vivo: A549 xenograft mice
Method: Accordingly, a longitudinal, twenty-two-hour, one-dose study was performed using Compound 04 and the commercially available ALK5 inhibitor vactosertib in an A549 xenograft mouse model. In this study, p-SMAD2 (Ser465/Ser467) and a housekeeping gene (GAPDH) were measured at ten timepoints from zero (established using vehicle-treated animals) up to twenty-two hours post dose for a single drug dose of fifty milligrams per kilogram per subject (three subjects per dosing group).
For this study, xenografts were prepared and implanted in mice as follows. At five weeks of age, female athymic nude mice (purchased from Charles River) were injected with approximately 2.1 million A549 cells (ATCC, CCL-185). Cells were harvested and resuspended in plain RPMI media (no phenol red added) and Matrigel (Corning 356237) at a one to one ratio, and two hundred-microliters of the cell suspension were injected into the right hind flank of each mouse. Tumors were measured every three days by caliper, and as tumors reached an average of seventy-eighty millimeters cubed, mice were randomized in groups of three subjects. Each of the test compounds (vactosertib, Compound 04) was resuspended in 1-methyl-2-pyrrolidinone (Sigma, 494496) (10%) plus 20% Solutol (Sigma 42966) in water (90%). The drug suspensions were sonicated for fifteen minutes to generate a fine particle suspension before being given to the test subjects. Subjects were dosed (per oral gavage) with the suspension. A vehicle control group with three mice was used to establish the baseline and timepoint zero of phospho-SMAD-2 in the tumor xenograft. The test compounds were administered to the respective subject groups at fifty milligrams per kilogram.
Samples were obtained post administration of test compounds at 30 minutes, one hour, two hours, four hours, six hours, eight hours, twelve hours, sixteen hours and twenty-two hours. Tumors were harvested, snap frozen and stored at negative eighty degrees Celsius until further processing. Plasma was collected from all animals by collecting whole blood via cardiac puncture, followed by centrifugation in tubes containing EDTA (BD, microtainer tubes, 365974). A group of three mice receiving vehicle only served as the zero timepoint for both drug groups. The phospho SMAD-2 levels were determined using the Bio-Plex Pro™ Phospho-Smad2 (Ser465/Ser467) Set (BioRad 171V50019M). The phospho SMAD-2 levels were normalized to GAPDH (MILLIPLEX MAP GAPDH Total Magnetic Bead MAPmate™, Millipore 46-667MAG) levels from each sample. All analytes were analyzed in a multiplex fashion with the Bio-Plex Pro Cell Signaling Reagent Kit (BioRad 171304006M). Frozen tumor samples (fifteen to thirty milligrams) were lysed in 100 μl lysis buffer, processed in a bead mill tube, and centrifuged. The resulting lysate was used at 1:50 dilution for the assay according to the manufacturer's instructions. Bead suspension was analyzed using the Luminex system (MAGPIX).
The study described in Example 8 was expanded to include Compound 01. Accordingly, using the same procedure for preparing test subjects and the ability of compounds tested to suppress TGF-beta signaling over time (as described in Example 8), a longitudinal, twenty-two-hour, one-dose study was performed using Compound 01, and the data were plotted alongside data obtained in Example 8 from Compound 04 and commercially available ALK5 inhibitor vactosertib, which were replotted in accordance with Example 10. For this expansion of the longitudinal study, p-SMAD2 (Ser465/Ser467) and housekeeping gene GAPDH were measured at ten timepoints from zero up to twenty-two hours post a single drug dose of fifty milligrams per kilogram per animal (three animals per group). A vehicle only treatment group of three mice was used to establish the baseline levels of p-SMAD2 in A549 xenograft tumor samples.
As in Example 8, xenografts were prepared and implanted in mice as follows. […]

[1] = system: bleomycin-induced lung fibrosis; assay: Bleomycin-induced lung fibrosis study; format: in vivo, mice; settings: for formation of fibrosis, Masson's trichrome stained lung tissue: 25 or 50 mg/kg BID, responding animals; for Ashcroft score, group comparison to the bleomycin/vehicle group: all doses, five animals per group
Method: The most common animal model of pulmonary fibrosis is the bleomycin-induced lung fibrosis model in rodents. This model is commonly used to investigate biology and potential therapies for fibrotic diseases affecting the lung, such as idiopathic pulmonary fibrosis (IPF). Bleomycin, a cytotoxic drug, is administered to mice or rats and causes direct cell injury triggered by DNA strand breaks, which leads to an overproduction of reactive oxygen species causing inflammation, pulmonary toxicity, activation of fibroblasts and subsequent fibrosis. Fibrosis is hallmarked by aberrant activation of lung epithelial cells and accumulation of fibroblasts and myofibroblasts with excessive production of extracellular matrix such as collagen. To test the ability of Compound 01 and Compound 04 to reduce fibrosis in vivo, a bleomycin induced lung fibrosis model in mice was utilized and endpoints such as lung hydroxyproline levels, a surrogate marker of collagen and fibrosis, and histological scoring of fibrosis were performed.
For this study, male C57BL/6J mice approximately 6 to 7 weeks old (purchased from Charles River) were weighed on the day prior to study day 0 to establish a baseline. All study arms contained sixteen total animals, except the sham/vehicle group, which contained 10 animals. All animals, except the sham/vehicle group were dosed intranasally with 4 international units per kilogram bleomycin in the morning of day 1 of the study. Bleomycin was prepared in a solution of 0.9 percent sodium chloride. All drugs were prepared in 10 percent Tween 20. Starting in the evening on day 1 of the study, one dose of Compound 04 or Compound 01 was given at either twenty-five or fifty milligrams per kilogram per oral gavage. For all subsequent days of the twenty-one day study, animals were dosed twice a day per oral gavage with either twenty-five or fifty milligram per kilogram of Compound 04 or Compound 01. At day twenty-one, the lungs were harvested and either snap frozen or fixed in paraformaldehyde. The left lobe of the lungs was subjected to hydroxyproline quantification, which was used as a biomarker of fibrosis and total collagen. The remaining lung tissue was fixed in paraformaldehyde to be processed for histological examination following hematoxylin-eosin (H&E) and Masson trichrome staining. […]. Clinical observations were recorded daily.

Structure (SMILES) | percent p-SMAD2 levels compared to vehicle group (p-SMAD2 (Ser465/Ser467); 0.5 h post dosing) [%] | percent p-SMAD2 levels compared to vehicle group (p-SMAD2 (Ser465/Ser467); 1 h post dosing) [%] | percent p-SMAD2 levels compared to vehicle group (p-SMAD2 (Ser465/Ser467); 4 h post dosing) [%] | percent p-SMAD2 levels compared to vehicle group (p-SMAD2 (Ser465/Ser467); 6 h post dosing) [%] | percent p-SMAD2 levels compared to vehicle group (p-SMAD2 (Ser465/Ser467); 8 h post dosing) [%] | percent p-SMAD2 levels compared to vehicle group (p-SMAD2 (Ser465/Ser467); 12 h post dosing) [%] | percent p-SMAD2 levels compared to vehicle group (p-SMAD2 (Ser465/Ser467); 16 h post dosing) [%] | percent p-SMAD2 levels compared to vehicle group (p-SMAD2 (Ser465/Ser467); 22 h post dosing) [%] | time of peak p-SMAD2 suppression post dosing (p-SMAD2 (Ser465/Ser467)) | drug tumor and plasma exposure in vivo (p-SMAD2 (Ser465/Ser467); 50 mg/kg) | drug tumor and plasma exposure in vivo (p-SMAD2 (Ser465/Ser467); listed as compound 04, 50 mg/kg) | formation of fibrosis, Masson's trichrome stained lung tissue [1] | Ashcroft score, group comparison to the bleomycin/vehicle group [1] | percent p-SMAD2 levels compared to vehicle group (p-SMAD2 (Ser465/Ser467); 2 h post dosing) [%] | drug tumor and plasma exposure in vivo (p-SMAD2 (Ser465/Ser467))
Clc1cccc2c(Nc3ccnc(Nc4cccc(N5CCOCC5)c4)c3)cnnc12 [Compound 04, N4-(8-chlorocinnolin-4-yl)-N2-[3-(morpholin-4-yl)phenyl]pyridine-2,4-diamine] | 55 | 24 | 14 | 22 | 57 | 95.0 | 81.9 | 91.4 | two | longer drug tumor and plasma exposure in vivo than vactosertib | longer drug tumor and plasma exposure in vivo | reduced the formation of fibrosis | not statistically significant | – | –
Cc1cccc(-c2[nH]c(CNc3ccccc3F)nc2-c2ccc3ncnn3c2)n1 [Vactosertib, vactosertib, reference compound] | 53 | 14 | 32 | 67 | 65 | 89.1 | 74.6 | 101.1 | – | quickly cleared from the system; also recorded: quickly cleared from the mice | – | – | – | 21 | –
Cc1nn(CC(F)(F)F)cc1Nc1cc(Nc2cnnc3c(C)cccc23)ccn1 [Compound 01, N2-[3-methyl-1-(2,2,2-trifluoroethyl)-1H-pyrazol-4-yl]-N4-(8-methylcinnolin-4-yl)pyridine-2,4-diamine] | 57 | 37 | 30 | 59 | 76 | 89.2 | 82.1 | 86.5 | 2 h | – | – | reduced the formation of fibrosis | not statistically significant | 24 | longer drug tumor and plasma exposure in vivo
